The values below come from PMC3838870 (Journal of inorganic biochemistry, 2013).

A short description of series [1]: Chelator-induced erythrocyte hemolysis. Type of series: cell-based, human. To be noted: human, human erythrocyte suspension, pH 7.4.
In series [2] the test system is chloroquine-sensitive (3D7) Plasmodium falciparum. As to the kind of experiment: Parasite growth inhibition, [3H]-hypoxanthine incorporation, 3D7. Type of series: cell-based.
The subject of series [3] is chloroquine-resistant (7G8) Plasmodium falciparum. The following applies: read-out: Growth inhibition efficacy (IC50), 7G8 P. falciparum; chloroquine-resistant 7G8, mean ± SD (n = 6); previously reported; cited from earlier work.
The subject of series [4] is chloroquine-sensitive (3D7) Plasmodium falciparum. The following applies: read-out: IC50, 3D7 malaria strain; cited from earlier work.
Series [5] deals with non-parasitized human erythrocytes. The series is described as follows: Effect of chelators on erythrocyte shape. To be noted: 2.5–15 μM chelator, 48 h, Giemsa staining. Type of series: cell-based.
Series [6] relates to synchronized chloroquine-sensitive P. falciparum (3D7). The series is described as follows: Stage-specific parasite growth. Type of series: cell-based, Plasmodium falciparum. The following applies: chelator 7.5 μM, 3D7 synchronized at ring-stage.
The subject of a further series is human erythrocytes. The series is described as follows: Chelator-induced erythrocyte hemolysis. The following applies: control 0.0175± 0.0005. Type of series: cell-based.

Where two headings read alike, the source gives them in different places.

With `CC(=O)N(O)CCCCCNC(=O)CCC(=O)N(O)CCCCCNC(=O)CCC(=O)N(O)CCCCCN` [DFO, desferrioxamine], in series [1], the hemolysis at 10 μM is 0.0193 ± 0.0005%, the hemolysis at 20 μM was determined as 0.0182 ± 0.0005%, the hemolysis at 30 μM turned out to be 0.0186 ± 0.0008% and the hemolysis at 45 μM was 0.0192 ± 0.0001%. Moreover, the hemolysis at 60 μM in series [1] amounted to 0.0182 ± 0.0002%. In addition, in series [2] (Plasmodium falciparum, 3D7, 48 h, read-out: Growth inhibition efficacy (IC50), 3D7 P. falciparum), the IC50 (in general, the concentration that inhibits the measured activity by half) worked out at 23.4 ± 3.4 µM. In addition, the half-maximal inhibitory concentration (IC50) in series [2] (Plasmodium falciparum, 3D7, 48 h, read-out: Growth inhibition efficacy (IC50), 3D7 P. falciparum, chloroquine-sensitive 3D7, 48 h culture, mean ± SD (n = 6)) came to 23.5 µM. Also, the IC50 in series [3] is 18.5 µM.

`Cc1ncc(CO)c(/C=N/NC(=O)c2ccncc2)c1O` [PIH, pyridoxal isonicotinoyl hydrazone]: in series [1], the hemolysis at 10 μM was found to be 0.0195 ± 0.0004%, the hemolysis at 15 μM is 0.0188 ± 0.0003%, the hemolysis at 20 μM came out at 0.019 ± 0.0006% and the hemolysis at 25 μM was determined as 0.0193 ± 0.0004%. For the same molecule, in series [1], the hemolysis at 30 μM came to 0.0192 ± 0.0008%. For the same molecule, the IC50 in series [4] was 50 µM.

With `O=C(NN=Cc1c(O)ccc2ccccc12)c1ccncc1` [compound 311, 2-hydroxy-1-naphthylaldehyde isonicotinoyl hydrazone], the “Effect on erythrocyte shape” value in series [5] was “no apparent effect on erythrocyte shape”. For the same molecule, the “% Inhibition, rings, 24 hour culture” value in series [6] was determined as 99 ± 8.4%. In addition, the “Supernatant hemoglobin, % MCHC (hemolysis)” value with human erythrocytes (chelator 0.5 μM) came to 0.0193±0.0005 % MCHC; in the series with human erythrocytes (chelator 1 μM), 0.0195±0.0010 % MCHC; with human erythrocytes (chelator 1.5 μM) it was 0.0200±0.0006 % MCHC; in the series with human erythrocytes (chelator 2 μM), 0.0203±0.0005 % MCHC; in the series on human erythrocytes (chelator 3 μM) it was 0.0197±0.0005 % MCHC. Further, the half-maximal inhibitory concentration (IC50) in series [2] (read-out: Growth inhibition efficacy (IC50), 3D7 P. falciparum, chloroquine-sensitive 3D7, 48 h culture, mean ± SD (n = 6)) was 4.45 ± 1.7 µM; in series [3], 4.46 ± 0.3 µM.
